Experiments:
Bend.3 cells [1] = experiment: Transendothelial cell electrical resistance (TEER) assay; type: cell-based; conditions: mouse BEC monolayers, 1 μM, vs vehicle or media alone
Procedure: Bend.3 cells were grown in ATCC-formulated DMEM supplemented with 10% FBS on 24-well transwell inserts, 8 μm pore size (BD Falcon, Bedford, Mass.) until a monolayer was established. TEER was assessed using a Voltohmeter (EVOMX, World Precision Instruments, Sarasota, Fla.). Background resistance from un-seeded transwells was subtracted from recorded values to determine absolute TEER values. Change in absolute TEER from T0 for each individual transwell was expressed as percentage change and then averaged for each treatment group.

Bend.3 cells [2] = experiment: Albumin uptake assay; type: cell-based, mouse; conditions: BECs, 1 μM, 30 minutes, vs media and vehicle
Procedure: Bend.3 cells grown on collagen coated coverslips were incubated with albumin-alexafluor 594 (50 mg/ml) (Invitrogen) and either media alone, DMSO vehicle, NECA (1 μM), or Lexiscan (1 μM) for 30 minutes. Albumin uptake was visualized (albumin=red) utilizing the Zeiss Axio Imager M1 fluorescent microscope. Total albumin fluorescence was recorded using Zeiss Axio Vision software, and measured utilizing Image-J software.

Bend.3 cells [3] = experiment: F-actin (phalloidin) staining of endothelial cells; type: cell-based, mouse; conditions: BECs, 1 μM, 3 or 30 min, vs vehicle
Procedure: Bend.3 cells were grown (as described above) on circular cover slips in 24-well plates. Cells were treated for 3 or 30 min with 1 μM CCPA, 1 μM […], DMSO or media alone. Cover slips were washed with PBS, fixed in 4% paraformaldahyde, washed again in PBS and then permeabilized with 0.5% TritonX-100 in PBS. After washing in PBS/1% BSA, cover slips were blocked with 1% BSA then stained with Phallodin-Alexa 568. Cover slips were washed and mounted on slides with ProlongGold containing DAPI (Invitrogen). Images were obtained on an Olympus BX51 fluorescent microscope.

blood brain barrier [4] = experiment: Fluorescently labeled dextran extravasation into mouse brain (fluorimetry); type: in vivo, mice
Procedure: (§1) The adenosine receptor agonists NECA, CCPA, CGS 21860, and SCH 58261 (Tocris, Ellisville, Mo.) were each dissolved in DMSO then diluted in PBS to the desired concentration; in most cases final DMSO concentrations were <0.5% (vol/vol). Lexiscan (Regadenoson; TRC, Inc., Toronto) was dissolved in PBS. For vehicle controls, DMSO was diluted in PBS to the same concentration. Dehydrated dextrans labeled with either FITC or Texas Red (Invitrogen, Carlsbad, Calif.) were re-suspended in PBS to 10 mg/ml. All experiments involving dextran injection used 1.0 mg dextran in PBS. In experiments where drug and dextran were injected concomitantly, 1.0 mg of dextran was mixed with the drug to the desired concentration in a final volume of 200 μl. In dose-response experiments, drugs and dextrans were injected concomitantly. All injections, except injections of SCH 58261, were retro-orbital i.v. with a 27-gauge needle. In the SCH 58261 experiment, SCH 58261 injections, 1 mg/kg, were intraperitoneal and mice were pre-dosed with this concentration daily for 4 days prior to the day of the experiment. An additional injection was administered at the time of the experiment. Vehicle/drug and dextrans were injected on day 5 and tissues were collected 3 h after vehicle/drug administration. In Lexiscan experiments, Lexiscan was administered i.v. with 3 injections, 5 min apart and tissues were collected at 15 min unless otherwise indicated.
In dose-response experiments and experiments with the A1 AR and A2A AR knock-out mice, drugs and dextrans were injected concomitantly. After 3 h, the mice were anesthetized with ketamine/xylazine and subjected to a nose cone containing isoflurane. They were perfused with 25-50 ml ice-cold PBS through the left ventricle of the heart then decapitated. Their brains were removed, weighed and frozen for later analysis.
(§2) Ice-cold 50 mMTris-Cl (pH 7.6) was added to frozen brains (100 μl per 100 mg brain) and were to thawed on ice. They were homogenized with a dounce homogenizer and centrifuged at […] in a microfuge for 30 min at room temperature (rt). The supernatants were transferred to new tubes and an equal volume absolute methanol was added. The samples were centrifuged again at […] for 30 min at rt. Supernatant (200 μl) was transferred to a Corning costar 96 well black polystyrene assay plate (clear bottom). Additionally, a series of standards containing 0.001-10 pg/ml dextran in 50% Tris-Cl/50% absolute methanol (vol/vol) was added to each plate. Absolute concentrations of dextrans were derived from these standard curves. Fluorimetric analysis was performed on a BioTek (Winooski, Vt.) Synergy 4. FITC-dextran was detected at 488/519 (excitation/emission) and Texas Red-dextran was detected at 592/618.

Bend.3 cells [5] = experiment: Tight junction molecule staining (ZO-1, Claudin-5, Occludin); type: cell-based, mouse; conditions: 1 μM, 1 h
Procedure: Bend.3 cells grown on collagen coated coverslips were incubated with DMSO vehicle, NECA (1 μM), or Lexiscan (1 μM) for 1 h. Cells were washed with PBS, fixed with 4% paraformaldehyde, and permeabilized with 0.5% Triton-X in PBS. Cells were blocked with PBS/BSA/goat serum and then stained with antibodies (Invitrogen) against either ZO-1 (1A12), Claudin-5 (34-1600), or Occludin (3F10). Following a wash step, cells were incubated with either goat anti-rabbit IgTexas Red-X or goat anti-mouse IgCy5 (Invitrogen). Cover slips were washed and mounted on slides with ProlongGold containing DAPI. Images were obtained on a Zeiss Axio Imager M1 fluorescent microscope.

blood brain barrier [6] = experiment: Fluorescently labeled dextran extravasation into rat brain (fluorimetry); type: in vivo; conditions: rats
Procedure: as §1
as §2, with “Additionally, a series of standards containing 0.001-10 pg/ml dextran in 50% Tris-Cl/50% absolute methanol (vol/vol) was added to each plate. Absolute concentrations of dextrans were derived from these standard curves. Fluorimetric analysis was performed on a BioTek (Winooski, Vt.) Synergy 4.” left out

[7] = mice, single i.v. injection (0.05 mg/kg)

CNC(=O)c1cnn(-c2nc(N)c3ncn([C@@H]4O[C@H](CO)[C@@H](O)[C@H]4O)c3n2)c1 [Lexiscan]
TEER (Bend.3 cells [1]): decreases in TEER | rate of fluorescently-labeled albumin uptake (Bend.3 cells [2]): did not affect the rate of fluorescently-labeled albumin uptake | actinomyosin stress fiber formation (Bend.3 cells [3]): marked induction of actinomycin stress fibers | magnitude of increased BBB permeability compared with NECA (blood brain barrier [4]; i.v. administration): much greater than the magnitude of increased permeability after NECA administration | BBB permeability to 10,000 Da dextrans (blood brain barrier [4]; mice, i.v. administration): increase BBB permeability to 10,000 Da dextrans | time by which BBB permeability returned to baseline (blood brain barrier [4]; [7]): ≤ 180 min | time of maximum increased BBB permeability (blood brain barrier [4]; [7]): 30 min | time after which FITC-dextran was detectable in the brain (blood brain barrier [4]; mice, single injection): 5 min | ZO-1 and claudin-5 expression (Bend.3 cells [5]): discreet alterations in ZO-1 and claudin-5 | occludin expression (Bend.3 cells [5]): severely diminished occludin expression | labeled-dextran levels in brain (blood brain barrier [6]; 3 injections over 15 min): dramatically high levels of labeled-dextran | increase in labeled-dextran, multiple doses compared to single injections (blood brain barrier [6]; 3 injections vs single injection): more than 20 fold | BBB permeability (blood brain barrier [6]; i.v. administration): increased BBB permeability in rats
